Test results as given in ChEMBL document CHEMBL5260845, “Flavone-based arylamides as potential anticancers: Design, synthesis and in vitro cell-based/cell-free evaluations” (2020).
Activity calls are given as the source filed them. The calls are words filed in the database; no cut-off is given here.

Columns and labels:
NCI-H460 = assay: Antiproliferative activity against human NCI-H460 cells assessed as cell growth inhibition at 10 uM by SRB assay relative to control; assay type: functional
SN12C = assay: Antiproliferative activity against human SN12C cells assessed as inhibition of cell growth at 10 uM by SRB assay relative to control; assay type: functional
SK-MEL-5 = assay: Antiproliferative activity against human SK-MEL-5 cells assessed as cell growth inhibition at 10 uM by SRB assay relative to control; assay type: functional
TK-10 = assay: Antiproliferative activity against human TK-10 cells assessed as inhibition of cell growth at 10 uM by SRB assay relative to control; assay type: functional
MOLT-4 = assay: Antiproliferative activity against human MOLT-4 cells assessed as cell growth inhibition at 10 uM by SRB assay; assay type: functional, cell-based
IGROV-1 = assay: Antiproliferative activity against human IGROV-1 cells assessed as cell growth inhibition at 10 uM by SRB assay relative to control; assay type: functional
SK-OV-3 = assay: Antiproliferative activity against human SK-OV-3 cells assessed as inhibition of cell growth at 10 uM by SRB assay relative to control; assay type: functional
MCF7 = assay: Antiproliferative activity against estrogen receptor positive human MCF7 cells assessed as inhibition of cell growth at 10 uM by SRB assay; assay type: functional, cell-based
OVCAR-3 = assay: Antiproliferative activity against human OVCAR-3 cells assessed as cell growth inhibition at 10 uM by SRB assay relative to control; assay type: functional; settings: pooled result: one value given for 2 cell lines, strains, targets or settings
SK-MEL-28 = assay: Antiproliferative activity against human SK-MEL-28 cells assessed as cell growth inhibition at 10 uM by SRB assay relative to control; assay type: functional
HCT-15 = assay: Antiproliferative activity against human HCT-15 cells assessed as cell growth inhibition at 10 uM by SRB assay; assay type: functional, cell-based
RPMI-8226 = assay: Antiproliferative activity against human RPMI-8226 cells assessed as cell growth inhibition at 10 uM by SRB assay; assay type: functional, cell-based
786-0 = assay: Antiproliferative activity against human 786-0 cells assessed as inhibition of cell growth at 10 uM by SRB assay relative to control; assay type: functional
HOP-92 = assay: Antiproliferative activity against human HOP-92 cells assessed as cell growth inhibition at 10 uM by SRB assay relative to control; assay type: functional
[1] = molecular target: Phosphorylase b kinase gamma catalytic chain, liver/testis isoform (Homo sapiens) (UniProt P15735); assay: Inhibition of PHKG2 (unknown origin) at 10 uM by biochemical hotspot kinase assay relative to control
Chain of Phosphorylase b kinase gamma catalytic chain, liver/testis isoform (Homo sapiens) (P15735 whole entry, canonical isoform): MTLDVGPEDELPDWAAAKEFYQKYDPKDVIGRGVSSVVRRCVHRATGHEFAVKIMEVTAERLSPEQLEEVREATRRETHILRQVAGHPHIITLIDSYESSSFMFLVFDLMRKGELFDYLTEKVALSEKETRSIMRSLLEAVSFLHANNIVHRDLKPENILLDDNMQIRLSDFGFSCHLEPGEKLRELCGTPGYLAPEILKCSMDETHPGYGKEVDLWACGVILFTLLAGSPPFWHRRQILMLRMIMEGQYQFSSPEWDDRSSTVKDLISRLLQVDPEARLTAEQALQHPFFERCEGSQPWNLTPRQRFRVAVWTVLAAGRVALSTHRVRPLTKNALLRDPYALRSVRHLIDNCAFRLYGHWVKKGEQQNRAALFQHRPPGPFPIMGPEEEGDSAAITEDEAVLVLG

[2] = molecular target: Tyrosine-protein kinase ABL1 (Homo sapiens) (UniProt P00519); assay: Inhibition of ABL1 (unknown origin) at 10 uM by biochemical hotspot kinase assay
Chain of Tyrosine-protein kinase ABL1 (Homo sapiens) (P00519 whole entry): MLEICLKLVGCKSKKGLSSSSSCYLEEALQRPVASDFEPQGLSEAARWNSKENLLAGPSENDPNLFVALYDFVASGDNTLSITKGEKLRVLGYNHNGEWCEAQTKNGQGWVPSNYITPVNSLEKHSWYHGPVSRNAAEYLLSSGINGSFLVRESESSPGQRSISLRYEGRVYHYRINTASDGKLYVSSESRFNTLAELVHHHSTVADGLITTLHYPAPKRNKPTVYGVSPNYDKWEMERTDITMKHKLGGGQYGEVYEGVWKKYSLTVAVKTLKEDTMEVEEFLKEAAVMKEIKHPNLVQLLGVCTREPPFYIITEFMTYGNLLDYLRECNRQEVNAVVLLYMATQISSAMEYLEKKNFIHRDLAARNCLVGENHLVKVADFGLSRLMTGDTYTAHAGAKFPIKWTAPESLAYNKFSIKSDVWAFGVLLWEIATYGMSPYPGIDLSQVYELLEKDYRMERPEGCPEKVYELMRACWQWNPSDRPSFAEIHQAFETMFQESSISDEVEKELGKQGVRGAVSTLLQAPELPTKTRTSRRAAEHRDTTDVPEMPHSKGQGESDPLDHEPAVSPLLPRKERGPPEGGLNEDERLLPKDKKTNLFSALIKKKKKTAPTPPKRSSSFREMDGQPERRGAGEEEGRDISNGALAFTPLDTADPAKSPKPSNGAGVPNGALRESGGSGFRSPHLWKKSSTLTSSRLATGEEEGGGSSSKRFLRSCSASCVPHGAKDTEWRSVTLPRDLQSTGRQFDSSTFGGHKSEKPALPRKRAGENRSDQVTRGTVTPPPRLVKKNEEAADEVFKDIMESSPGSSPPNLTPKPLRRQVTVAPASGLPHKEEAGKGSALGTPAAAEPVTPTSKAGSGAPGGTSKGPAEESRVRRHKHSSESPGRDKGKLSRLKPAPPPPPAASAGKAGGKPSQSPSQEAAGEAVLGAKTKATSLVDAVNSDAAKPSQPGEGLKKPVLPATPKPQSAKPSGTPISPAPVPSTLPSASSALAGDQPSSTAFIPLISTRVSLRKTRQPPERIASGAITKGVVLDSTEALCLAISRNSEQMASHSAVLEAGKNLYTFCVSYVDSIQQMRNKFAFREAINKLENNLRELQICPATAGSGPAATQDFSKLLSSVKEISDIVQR

[3] = molecular target: Serine/threonine-protein kinase Chk1 (Homo sapiens) (UniProt O14757); assay: Inhibition of CHK1 (unknown origin) at 10 uM by biochemical hotspot kinase assay
[4] = molecular target: Rho-associated protein kinase 1 (Homo sapiens) (UniProt Q13464); assay: Inhibition of ROCK1 (unknown origin) at 10 uM by biochemical hotspot kinase assay
[5] = molecular target: Homeodomain-interacting protein kinase 1 (Homo sapiens) (UniProt Q86Z02); assay: Inhibition of HIPK1 (unknown origin) at 10 uM by biochemical hotspot kinase assay
[6] = molecular target: Mitogen-activated protein kinase 7 (Homo sapiens) (UniProt Q13164); assay: Inhibition of ERK5 (unknown origin) at 10 uM by biochemical hotspot kinase assay
Chain of Mitogen-activated protein kinase 7 (Homo sapiens) (Q13164 2-816 limits assumed): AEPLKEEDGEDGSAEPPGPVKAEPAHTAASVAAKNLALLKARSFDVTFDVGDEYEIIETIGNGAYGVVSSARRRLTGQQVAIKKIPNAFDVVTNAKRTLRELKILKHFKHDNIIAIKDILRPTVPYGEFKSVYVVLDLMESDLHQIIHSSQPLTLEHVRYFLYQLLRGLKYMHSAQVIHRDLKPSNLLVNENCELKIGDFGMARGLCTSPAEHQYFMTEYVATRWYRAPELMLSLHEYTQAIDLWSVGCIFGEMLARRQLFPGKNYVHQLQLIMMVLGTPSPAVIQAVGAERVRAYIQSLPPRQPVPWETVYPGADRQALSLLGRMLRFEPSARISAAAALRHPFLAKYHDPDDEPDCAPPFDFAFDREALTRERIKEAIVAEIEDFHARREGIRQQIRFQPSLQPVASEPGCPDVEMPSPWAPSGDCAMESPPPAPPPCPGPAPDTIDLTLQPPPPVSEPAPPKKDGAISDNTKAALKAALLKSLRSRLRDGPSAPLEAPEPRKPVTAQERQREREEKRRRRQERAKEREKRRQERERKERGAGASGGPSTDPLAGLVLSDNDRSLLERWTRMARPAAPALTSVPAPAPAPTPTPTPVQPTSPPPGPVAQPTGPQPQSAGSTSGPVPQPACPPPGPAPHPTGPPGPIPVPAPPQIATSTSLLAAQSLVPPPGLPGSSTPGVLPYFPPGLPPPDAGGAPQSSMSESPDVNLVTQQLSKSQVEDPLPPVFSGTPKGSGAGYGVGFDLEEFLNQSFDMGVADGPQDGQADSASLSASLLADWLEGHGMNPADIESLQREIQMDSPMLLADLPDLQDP

[7] = molecular target: Fibroblast growth factor receptor 1 (Homo sapiens) (UniProt P11362); assay: Inhibition of FGFR1 (unknown origin) at 10 uM by biochemical hotspot kinase assay relative to control
[8] = molecular target: Platelet-derived growth factor receptor alpha (Homo sapiens) (UniProt P16234); assay: Inhibition of PDGFRa (unknown origin) at 10 uM by biochemical hotspot kinase assay
[9] = molecular target: Tyrosine-protein kinase BTK (Homo sapiens) (UniProt Q06187); assay: Inhibition of BTK (unknown origin) at 10 uM by biochemical hotspot kinase assay relative to control
[10] = molecular target: Serine/threonine-protein kinase Chk2 (Homo sapiens) (UniProt O96017); assay: Inhibition of CHK2 (unknown origin) at 10 uM by biochemical hotspot kinase assay relative to control
Chain of Serine/threonine-protein kinase Chk2 (Homo sapiens) (O96017 whole entry): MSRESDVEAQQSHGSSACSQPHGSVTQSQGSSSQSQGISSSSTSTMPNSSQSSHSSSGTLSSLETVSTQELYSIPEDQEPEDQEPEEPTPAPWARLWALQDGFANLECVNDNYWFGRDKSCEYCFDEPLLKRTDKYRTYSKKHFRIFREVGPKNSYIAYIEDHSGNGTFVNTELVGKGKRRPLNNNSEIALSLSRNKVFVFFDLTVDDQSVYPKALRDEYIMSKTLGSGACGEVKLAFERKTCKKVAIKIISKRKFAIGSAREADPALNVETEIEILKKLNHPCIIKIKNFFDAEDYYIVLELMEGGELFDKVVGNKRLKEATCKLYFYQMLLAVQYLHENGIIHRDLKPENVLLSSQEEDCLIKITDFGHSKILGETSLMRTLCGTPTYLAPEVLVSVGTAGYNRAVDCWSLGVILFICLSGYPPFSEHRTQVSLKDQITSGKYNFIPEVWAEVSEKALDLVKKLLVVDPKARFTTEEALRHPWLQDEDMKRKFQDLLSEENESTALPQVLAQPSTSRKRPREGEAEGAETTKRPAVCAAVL

[11] = molecular target: Epidermal growth factor receptor (Homo sapiens) (UniProt P00533); assay: Inhibition of EGFR (unknown origin) at 10 uM by biochemical hotspot kinase assay
[12] = molecular target: Angiopoietin-1 receptor (Homo sapiens) (UniProt Q02763); assay: Inhibition of TIE2 (unknown origin) at 10 uM by biochemical hotspot kinase assay relative to control
Chain of Angiopoietin-1 receptor (Homo sapiens) (Q02763 whole entry): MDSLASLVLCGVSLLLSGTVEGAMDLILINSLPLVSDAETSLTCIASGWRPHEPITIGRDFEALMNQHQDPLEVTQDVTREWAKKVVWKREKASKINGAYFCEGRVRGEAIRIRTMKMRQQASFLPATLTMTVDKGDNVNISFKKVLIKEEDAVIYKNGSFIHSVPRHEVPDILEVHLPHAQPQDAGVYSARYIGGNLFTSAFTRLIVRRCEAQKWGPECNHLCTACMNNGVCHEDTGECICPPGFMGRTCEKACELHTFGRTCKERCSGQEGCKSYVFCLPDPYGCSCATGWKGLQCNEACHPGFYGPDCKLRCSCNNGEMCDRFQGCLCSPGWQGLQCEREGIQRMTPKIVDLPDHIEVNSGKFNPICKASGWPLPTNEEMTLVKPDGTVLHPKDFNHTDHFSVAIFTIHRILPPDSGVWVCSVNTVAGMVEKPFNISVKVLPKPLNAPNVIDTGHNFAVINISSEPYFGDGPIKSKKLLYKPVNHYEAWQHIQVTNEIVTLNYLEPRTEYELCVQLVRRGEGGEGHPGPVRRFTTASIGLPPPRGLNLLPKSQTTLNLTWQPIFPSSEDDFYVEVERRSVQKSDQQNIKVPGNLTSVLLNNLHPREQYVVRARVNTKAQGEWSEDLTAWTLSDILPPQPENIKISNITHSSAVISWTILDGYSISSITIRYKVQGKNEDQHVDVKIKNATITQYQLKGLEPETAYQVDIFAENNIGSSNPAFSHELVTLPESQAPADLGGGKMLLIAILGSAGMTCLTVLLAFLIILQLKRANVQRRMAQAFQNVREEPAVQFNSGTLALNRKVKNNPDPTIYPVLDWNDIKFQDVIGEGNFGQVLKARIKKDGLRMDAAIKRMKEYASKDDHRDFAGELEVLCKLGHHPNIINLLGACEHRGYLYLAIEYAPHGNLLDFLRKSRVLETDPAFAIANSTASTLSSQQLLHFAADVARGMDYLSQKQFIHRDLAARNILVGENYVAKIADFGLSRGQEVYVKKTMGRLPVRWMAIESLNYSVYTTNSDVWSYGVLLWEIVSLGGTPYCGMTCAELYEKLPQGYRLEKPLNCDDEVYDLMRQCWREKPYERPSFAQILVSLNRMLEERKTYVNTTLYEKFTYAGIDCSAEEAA

[13] = molecular target: Serine/threonine-protein kinase PAK 1 (Homo sapiens) (UniProt Q13153); assay: Inhibition of PAK1 (unknown origin) at 10 uM by biochemical hotspot kinase assay
HT-29 [14] = assay: Induction of cell cycle arrest in human HT-29 cells assessed as accumulation of cells at G1 phase at 2.5 uM incubated for 24 hrs by PI staining based analysis (reference value: 40.3%); assay type: functional
[15] = molecular target: Ephrin type-B receptor 4 (Homo sapiens) (UniProt P54760); assay: Inhibition of EPHB4 (unknown origin) at 10 uM by biochemical hotspot kinase assay
[16] = molecular target: Serine/threonine-protein kinase 3 (Homo sapiens) (UniProt Q13188); assay: Inhibition of MST2 (unknown origin) at 10 uM by biochemical hotspot kinase assay relative to control
Chain of Serine/threonine-protein kinase 3 (Homo sapiens) (Q13188 whole entry): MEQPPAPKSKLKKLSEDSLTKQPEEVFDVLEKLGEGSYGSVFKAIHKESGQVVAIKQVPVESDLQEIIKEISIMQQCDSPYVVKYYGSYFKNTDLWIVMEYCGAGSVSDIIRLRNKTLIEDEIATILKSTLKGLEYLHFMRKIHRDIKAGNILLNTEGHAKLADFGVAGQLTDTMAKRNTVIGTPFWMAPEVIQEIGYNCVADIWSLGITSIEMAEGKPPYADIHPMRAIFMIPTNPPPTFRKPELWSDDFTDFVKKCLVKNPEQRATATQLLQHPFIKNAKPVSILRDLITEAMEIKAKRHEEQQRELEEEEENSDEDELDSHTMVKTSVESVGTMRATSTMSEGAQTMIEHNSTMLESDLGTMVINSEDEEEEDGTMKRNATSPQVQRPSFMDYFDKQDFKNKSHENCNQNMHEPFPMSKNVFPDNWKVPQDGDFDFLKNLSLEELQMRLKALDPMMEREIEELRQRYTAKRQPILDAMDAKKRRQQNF

[17] = molecular target: Mitogen-activated protein kinase kinase kinase 14 (Homo sapiens) (UniProt Q99558); assay: Inhibition of MAP3K14 (unknown origin) at 10 uM by biochemical hotspot kinase assay relative to control
HT-29 [18] = assay: Induction of cell cycle arrest in human HT-29 cells assessed as accumulation of cells at G1 phase at 10 uM incubated for 24 hrs by PI staining based analysis (reference value: 40.3%); assay type: functional
[19] = molecular target: Serine/threonine-protein kinase B-raf (Homo sapiens) (UniProt P15056); assay: Inhibition of B-RAF (unknown origin) at 10 uM by biochemical hotspot kinase assay relative to control
[20] = molecular target: Serine/threonine-protein kinase ICK (Homo sapiens) (UniProt Q9UPZ9); assay: Inhibition of LCK2 (unknown origin) at 10 uM by biochemical hotspot kinase assay
[21] = molecular target: Mitogen-activated protein kinase kinase kinase 8 (Homo sapiens) (UniProt P41279); assay: Inhibition of MAP3K8 (unknown origin) at 10 uM by biochemical hotspot kinase assay relative to control
Chain of Mitogen-activated protein kinase kinase kinase 8 (Homo sapiens) (P41279 whole entry): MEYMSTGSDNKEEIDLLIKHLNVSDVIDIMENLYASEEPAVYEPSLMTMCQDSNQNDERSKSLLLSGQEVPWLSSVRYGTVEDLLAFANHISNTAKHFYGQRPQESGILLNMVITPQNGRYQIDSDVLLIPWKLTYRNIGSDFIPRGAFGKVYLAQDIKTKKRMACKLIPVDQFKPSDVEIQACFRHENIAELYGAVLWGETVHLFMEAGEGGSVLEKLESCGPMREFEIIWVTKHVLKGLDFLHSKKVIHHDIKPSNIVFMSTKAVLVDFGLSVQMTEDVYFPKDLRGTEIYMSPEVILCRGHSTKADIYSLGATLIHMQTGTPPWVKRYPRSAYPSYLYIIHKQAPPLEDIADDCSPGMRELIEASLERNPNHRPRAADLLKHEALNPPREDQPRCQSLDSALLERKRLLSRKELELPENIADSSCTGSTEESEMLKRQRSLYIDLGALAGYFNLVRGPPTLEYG

[22] = molecular target: Serine/threonine-protein kinase PAK 2 (Homo sapiens) (UniProt Q13177); assay: Inhibition of PAK2 (unknown origin) at 10 uM by biochemical hotspot kinase assay
[23] = molecular target: cAMP-dependent protein kinase (PKA) (Homo sapiens) (UniProt P22694+P17612+P22612); assay: Inhibition of PKA (unknown origin) at 10 uM by biochemical hotspot kinase assay; assay type: protein assay
[24] = molecular target: RAC-alpha serine/threonine-protein kinase (Homo sapiens) (UniProt P31749); assay: Inhibition of AKT1 (unknown origin) at 10 uM by biochemical hotspot kinase assay relative to control

COc1cc2oc(-c3cccc(C(=O)Nc4ccc(Cl)cc4)c3)cc(=O)c2c(OC)c1OC
inhibition at 10 µM (NCI-H460): 74.8%
inhibition at 10 µM (SN12C): 61.4%
inhibition at 10 µM (SK-MEL-5): 107%
inhibition at 10 µM (TK-10): 61.4%
inhibition (MOLT-4): Active
inhibition at 10 µM (IGROV-1): 56.9%
inhibition at 10 µM (SK-OV-3): 56.9%
inhibition (MCF7): Active
inhibition at 10 µM (OVCAR-3): 56.9%
inhibition at 10 µM (SK-MEL-28): 107%
inhibition (HCT-15): Active
inhibition (RPMI-8226): Active
inhibition at 10 µM (786-0): 88%
inhibition at 10 µM (HOP-92): 87.2%

COc1cc2oc(-c3cccc(C(=O)Nc4ccc(C)cc4)c3)cc(=O)c2c(OC)c1OC
inhibition [1]: 8.33%
inhibition at 10 µM (SN12C): 55.7%
inhibition at 10 µM (SK-MEL-5): 108%
inhibition [2]: inactive
inhibition [3]: inactive
inhibition [4]: inactive
inhibition [5]: inactive
inhibition [6]: inactive
inhibition [7]: 16.5%
inhibition (MOLT-4): Active
inhibition [8]: inactive
inhibition [9]: 9.9%
inhibition [10]: 6.31%
inhibition [11]: inactive
inhibition at 10 µM (IGROV-1): 51.8%
inhibition [12]: 0.46%
inhibition [13]: inactive
Activity (HT-29 [14]): 55.4%
inhibition at 10 µM (OVCAR-3): 51.8%
inhibition [15]: inactive
inhibition at 10 µM (SK-MEL-28): 92.9%
inhibition [16]: 14.2%
inhibition (HCT-15): Active
inhibition [17]: 20.9%
Activity (HT-29 [18]): 64%
inhibition (RPMI-8226): Active
inhibition at 10 µM (786-0): 55.7%
inhibition [19]: 34.3%
inhibition [20]: inactive
inhibition [21]: 3.13%
inhibition [22]: inactive
inhibition [23]: inactive
inhibition [24]: 2.36%
